Source: ChEMBL document CHEMBL3885861, “Open TG-GATES”

Organism: Rattus norvegicus
Experiment: Open TG-GATES - Regimen: Daily Repeat
Format: toxicity, organism-based, Sprague-Dawley
Set-up: regimen Daily Repeat, gender Male, age 6 weeks
Details: in vivo, po, route gavage; for APTT / Bas / Eos / Fbg / Hb / Ht / Lym / MCH / MCHC / MCV / Mono / Neu / PT / Plat / RBC / Ret / WBC: tissue Blood; for KIDNEY_L / KIDNEY_R / KIDNEY_TOTAL: tissue Kidney; for LIVER: tissue Liver; for A/G / ALP / ALT / AST / BUN / CRE / Ca / Cl / DBIL / GLC / IP / K / LDH / Na / PL / RALB / TBIL / TC / TG / TP / gamma-GTP: tissue Plasma
[1] = 100 mg/kg, 72 h, dose level Middle, time 3 day
[2] = 100 mg/kg, […], dose level Middle, time 7 day
[3] = 100 mg/kg, […], dose level Middle, time 14 day
[4] = 100 mg/kg, […], dose level Middle, time 28 day
[5] = 300 mg/kg, 72 h, dose level High, time 3 day
[6] = 300 mg/kg, […], dose level High, time 7 day
[7] = 300 mg/kg, […], dose level High, time 14 day
[8] = 300 mg/kg, […], dose level High, time 28 day

## CC[C@H]1[C@@H]2C[C@H]3[C@@H]4N(C)c5ccccc5[C@]45C[C@@H]([C@@H]2[C@H]5O)N3[C@@H]1O [AJMALINE]
[1]
  TERMINAL_BW: 207.1 g
  APTT: 16.3 s
  Bas: 0%
  Eos: 1%
  Fbg: 202.6 mg/dL
  Hb: 12.8 g/dL
  Ht: 39.2%
  Lym: 79%
  MCH: 21.3 pg
  MCHC: 32.8%
  MCV: 65.1 fL
  Mono: 6%
  Neu: 13.6%
  PT: 11.8 s
  Plat: 114.8 x10_4/uL
  RBC: 601.8 x10_4/ul
  Ret: 7.8%
  WBC: 101.3 x10_2/uL
  KIDNEY_L: 1 g
  KIDNEY_R: 0.9 g
  KIDNEY_TOTAL: 1.9 g
  LIVER: 9.7 g
  A/G: 1.9
  ALP: 888.2 IU/L
  ALT: 39.2 IU/L
  AST: 63 IU/L
  BUN: 16.2 mg/dL
  CRE: 0.5 mg/dL
  Ca: 10.6 mg/dL
  Cl: 102.2 meq/L
  DBIL: 0.04 mg/dL
  GLC: 201 mg/dL
  IP: 7.9 mg/dL
  K: 4.3 meq/L
  LDH: 98.6 IU/L
  Na: 139.2 meq/L
  PL: 138 mg/dL
  RALB: 3.5 g/dL
  TBIL: 0.3 mg/dL
  TC: 71.8 mg/dL
  TG: 81 mg/dL
  TP: 5.3 g/dL
  gamma-GTP: 1 IU/L
[2]
  TERMINAL_BW: 245.4 g
  APTT: 16.6 s
  Bas: 0%
  Eos: 0.8%
  Fbg: 231.4 mg/dL
  Hb: 13.3 g/dL
  Ht: 40.4%
  Lym: 78.8%
  MCH: 21.1 pg
  MCHC: 32.8%
  MCV: 64.4 fL
  Mono: 7.6%
  Neu: 13%
  PT: 11.3 s
  Plat: 128.6 x10_4/uL
  RBC: 628 x10_4/ul
  Ret: 6.9%
  WBC: 119.7 x10_2/uL
  KIDNEY_L: 1 g
  KIDNEY_R: 1.1 g
  KIDNEY_TOTAL: 2.1 g
  LIVER: 12.2 g
  A/G: 2
  ALP: 770 IU/L
  ALT: 32.8 IU/L
  AST: 61.4 IU/L
  BUN: 18 mg/dL
  CRE: 0.5 mg/dL
  Ca: 11.6 mg/dL
  Cl: 103.8 meq/L
  DBIL: 0.012 mg/dL
  GLC: 219.2 mg/dL
  IP: 8.7 mg/dL
  K: 4.7 meq/L
  LDH: 106.8 IU/L
  Na: 142.8 meq/L
  PL: 154.4 mg/dL
  RALB: 3.8 g/dL
  TBIL: 0.3 mg/dL
  TC: 80 mg/dL
  TG: 94.6 mg/dL
  TP: 5.7 g/dL
  gamma-GTP: 1.4 IU/L
[3]
  TERMINAL_BW: 299.4 g
  APTT: 16.9 s
  Bas: 0%
  Eos: 0.8%
  Fbg: 231.4 mg/dL
  Hb: 14.1 g/dL
  Ht: 42.6%
  Lym: 80.6%
  MCH: 20.4 pg
  MCHC: 33.1%
  MCV: 61.7 fL
  Mono: 5.6%
  Neu: 13.4%
  PT: 11.2 s
  Plat: 140 x10_4/uL
  RBC: 690 x10_4/ul
  Ret: 4.7%
  WBC: 140 x10_2/uL
  KIDNEY_L: 1.2 g
  KIDNEY_R: 1.2 g
  KIDNEY_TOTAL: 2.3 g
  LIVER: 13.4 g
  A/G: 1.9
  ALP: 802.8 IU/L
  ALT: 31.8 IU/L
  AST: 65.6 IU/L
  BUN: 19.4 mg/dL
  CRE: 0.6 mg/dL
  Ca: 11 mg/dL
  Cl: 104 meq/L
  DBIL: 0.012 mg/dL
  GLC: 207 mg/dL
  IP: 7.6 mg/dL
  K: 4.7 meq/L
  LDH: 116.4 IU/L
  Na: 140.6 meq/L
  PL: 153.2 mg/dL
  RALB: 3.7 g/dL
  TBIL: 0.4 mg/dL
  TC: 77 mg/dL
  TG: 109.6 mg/dL
  TP: 5.7 g/dL
  gamma-GTP: 1.2 IU/L
[4]
  TERMINAL_BW: 363.5 g
  APTT: 16.5 s
  Bas: 0%
  Eos: 1%
  Fbg: 218.6 mg/dL
  Hb: 15.3 g/dL
  Ht: 45.6%
  Lym: 83%
  MCH: 19.2 pg
  MCHC: 33.4%
  MCV: 57.5 fL
  Mono: 4.8%
  Neu: 11.2%
  PT: 11.5 s
  Plat: 123.8 x10_4/uL
  RBC: 795 x10_4/ul
  Ret: 2.1%
  WBC: 123.3 x10_2/uL
  KIDNEY_L: 1.3 g
  KIDNEY_R: 1.3 g
  KIDNEY_TOTAL: 2.6 g
  LIVER: 14.6 g
  A/G: 1.8
  ALP: 699.2 IU/L
  ALT: 33.4 IU/L
  AST: 59.8 IU/L
  BUN: 17.8 mg/dL
  CRE: 0.6 mg/dL
  Ca: 10.2 mg/dL
  Cl: 104.4 meq/L
  DBIL: 0.036 mg/dL
  GLC: 189.8 mg/dL
  IP: 6.6 mg/dL
  K: 4.5 meq/L
  LDH: 87.6 IU/L
  Na: 141.2 meq/L
  PL: 131.6 mg/dL
  RALB: 3.9 g/dL
  TBIL: 0.3 mg/dL
  TC: 60.6 mg/dL
  TG: 108.4 mg/dL
  TP: 6 g/dL
  gamma-GTP: 1.6 IU/L
[5]
  TERMINAL_BW: 209.6 g
  APTT: 16.2 s
  Bas: 0%
  Eos: 1%
  Fbg: 214 mg/dL
  Hb: 12.9 g/dL
  Ht: 39.7%
  Lym: 82.8%
  MCH: 20.9 pg
  MCHC: 32.4%
  MCV: 64.4 fL
  Mono: 7.2%
  Neu: 9.6%
  PT: 11.6 s
  Plat: 121.1 x10_4/uL
  RBC: 616.8 x10_4/ul
  Ret: 7.8%
  WBC: 133 x10_2/uL
  KIDNEY_L: 0.9 g
  KIDNEY_R: 0.9 g
  KIDNEY_TOTAL: 1.9 g
  LIVER: 10.3 g
  A/G: 2
  ALP: 989.6 IU/L
  ALT: 44.2 IU/L
  AST: 68.2 IU/L
  BUN: 17 mg/dL
  CRE: 0.5 mg/dL
  Ca: 11.5 mg/dL
  Cl: 100.4 meq/L
  DBIL: 0.034 mg/dL
  GLC: 200 mg/dL
  IP: 8.3 mg/dL
  K: 4.4 meq/L
  LDH: 123.2 IU/L
  Na: 138.8 meq/L
  PL: 150 mg/dL
  RALB: 3.6 g/dL
  TBIL: 0.3 mg/dL
  TC: 87.6 mg/dL
  TG: 57.2 mg/dL
  TP: 5.4 g/dL
  gamma-GTP: 0.8 IU/L
[6]
  TERMINAL_BW: 244.7 g
  APTT: 16.4 s
  Bas: 0%
  Eos: 0.8%
  Fbg: 225.6 mg/dL
  Hb: 13.2 g/dL
  Ht: 39.9%
  Lym: 81%
  MCH: 21.1 pg
  MCHC: 33.1%
  MCV: 63.6 fL
  Mono: 4.4%
  Neu: 13.4%
  PT: 11.3 s
  Plat: 142.3 x10_4/uL
  RBC: 627.2 x10_4/ul
  Ret: 7%
  WBC: 118.8 x10_2/uL
  KIDNEY_L: 1.1 g
  KIDNEY_R: 1.1 g
  KIDNEY_TOTAL: 2.2 g
  LIVER: 11.7 g
  A/G: 1.9
  ALP: 944.4 IU/L
  ALT: 37 IU/L
  AST: 57.8 IU/L
  BUN: 16.8 mg/dL
  CRE: 0.5 mg/dL
  Ca: 11.6 mg/dL
  Cl: 103 meq/L
  DBIL: 0.026 mg/dL
  GLC: 189.8 mg/dL
  IP: 8.3 mg/dL
  K: 4.6 meq/L
  LDH: 98.8 IU/L
  Na: 141.4 meq/L
  PL: 142 mg/dL
  RALB: 3.5 g/dL
  TBIL: 0.4 mg/dL
  TC: 80.8 mg/dL
  TG: 56.8 mg/dL
  TP: 5.4 g/dL
  gamma-GTP: 1.2 IU/L
[7]
  TERMINAL_BW: 293.9 g
  APTT: 16.3 s
  Bas: 0%
  Eos: 1%
  Fbg: 234.8 mg/dL
  Hb: 13.9 g/dL
  Ht: 42%
  Lym: 83.2%
  MCH: 20.8 pg
  MCHC: 33.1%
  MCV: 62.7 fL
  Mono: 4.2%
  Neu: 11.8%
  PT: 11.2 s
  Plat: 140.6 x10_4/uL
  RBC: 670 x10_4/ul
  Ret: 5.6%
  WBC: 139.9 x10_2/uL
  KIDNEY_L: 1.2 g
  KIDNEY_R: 1.2 g
  KIDNEY_TOTAL: 2.4 g
  LIVER: 13.4 g
  A/G: 2.1
  ALP: 849.4 IU/L
  ALT: 35.4 IU/L
  AST: 62.2 IU/L
  BUN: 17.8 mg/dL
  CRE: 0.5 mg/dL
  Ca: 11.4 mg/dL
  Cl: 102.6 meq/L
  DBIL: 0.022 mg/dL
  GLC: 201.8 mg/dL
  IP: 8.2 mg/dL
  K: 4.8 meq/L
  LDH: 101.8 IU/L
  Na: 140 meq/L
  PL: 142.4 mg/dL
  RALB: 3.7 g/dL
  TBIL: 0.5 mg/dL
  TC: 73.6 mg/dL
  TG: 82 mg/dL
  TP: 5.5 g/dL
  gamma-GTP: 1.6 IU/L
[8]
  TERMINAL_BW: 349.6 g
  APTT: 17.3 s
  Bas: 0%
  Eos: 1.2%
  Fbg: 244.2 mg/dL
  Hb: 15.3 g/dL
  Ht: 45.1%
  Lym: 80.8%
  MCH: 19.8 pg
  MCHC: 33.9%
  MCV: 58.3 fL
  Mono: 5%
  Neu: 13.4%
  PT: 11.3 s
  Plat: 141.8 x10_4/uL
  RBC: 772.4 x10_4/ul
  Ret: 2.8%
  WBC: 147.5 x10_2/uL
  KIDNEY_L: 1.3 g
  KIDNEY_R: 1.4 g
  KIDNEY_TOTAL: 2.7 g
  LIVER: 15.4 g
  A/G: 1.8
  ALP: 589.2 IU/L
  ALT: 38.4 IU/L
  AST: 61.8 IU/L
  BUN: 19 mg/dL
  CRE: 0.7 mg/dL
  Ca: 11 mg/dL
  Cl: 103.2 meq/L
  DBIL: 0.036 mg/dL
  GLC: 187.2 mg/dL
  IP: 7.3 mg/dL
  K: 4.8 meq/L
  LDH: 88.4 IU/L
  Na: 140.8 meq/L
  PL: 172.8 mg/dL
  RALB: 3.9 g/dL
  TBIL: 0.3 mg/dL
  TC: 96.8 mg/dL
  TG: 73.6 mg/dL
  TP: 6.1 g/dL
  gamma-GTP: 1.4 IU/L
